Measured values as given in US20190224192A1, “Stable Pharmaceutical Composition of Vortioxetine Hydrobromide” (Cipla Limited, priority 2016, published 2019).
Counter-ions that a name gives are not always drawn.

Legend:
[1] = in vitro dissolution of premix compared to beta form; assay type: physicochemical; conditions: unit assumed
Text: FIG. 2: FIGS. 2a and 2b show dissolution data of a Vortioxetine hydrobromide premix according to the present invention compared to the beta form of Vortioxetine hydrobromide.
In one aspect, the present invention provides a Vortioxetine hydrobromide premix having stability and dissolution properties such that it can be easily formulated into pharmaceutically useful composition.

[2] = cited from earlier work
[3] = solid state form stability (conversion of form on stability); assay type: physicochemical
Text: WO 2016/062860 relates to a pharmaceutical composition comprising amorphous Vortioxetine hydrobromide, a process for the preparation thereof, use thereof and a method for stabilizing Vortioxetine hydrobromide in a pharmaceutical composition.
However, this technique is not desirable in cases where the melting point of the drug to be converted is very high. For the process to work, it is required that the drug undergoes complete melting, which would lead to complete conversion. The melting point of the drug Vortioxetine is very high, in order of 227-230 degrees. The normal temperatures that are employed in the laboratory is around 180 C, maximizing to 200 C. The HME in this case was attempted with Klucel and Kollidone VA 64. […] This could be attributed to the incomplete melting of the drug and thus incomplete form conversion.

SMILES	in vitro dissolution ([1]; Time in min 15)	in vitro dissolution ([1]; Time in min 30)	in vitro dissolution ([1]; Time in min 60)	in vitro dissolution ([1]; Time in min 120)	in vitro dissolution ([1]; Time in min 240)	in vitro dissolution ([1]; Time in min 480)	in vitro dissolution ([1]; Time in min 600)	in vitro dissolution ([1]; Time in min 720)	aqueous solubility [2]	solid state form conversion on stability [3]
Br.Cc1ccc(Sc2ccccc2N2CCNCC2)c(C)c1 [Beta Form, Vortioxetine hydrobromide]	14%	20%	29%	37%	49%	61%	63%	63%	about 1.2 mg/ml	
Cc1ccc(Sc2ccccc2N2CCNCC2)c(C)c1 [amorphous Vortioxetine hydrobromide, Vortioxetine hydrobromide]										gets converted to a more stable crystalline form
